Laboratory results: US20220281860A1, “COMPOUNDS AND METHODS OF TREATING RNA-MEDIATED DISEASES” (Arrakis Therapeutics, Inc., priority 2016, published 2022)

Tests used:
RNA3WJ_1.1.0_5IB_3FAM = assay: Thermal shift binding assay; settings: 1 μM RNA, 8 μM compound
Source text: (§1) Purpose: Test binding of compounds for RNA three way junction (for example, a construct of 38 nt). Thermal shift assay based on established fluorescence quenching assay utilizing FAM as fluorescence tag and Iowa Black as quencher. Tags were attached at the 3′ and 5′ end, respectively. Stable formation of 3WJ upon compound binding would lead to quenching of the FAM fluorescence due to close proximity of the Iowa Black tag. Thermal unfolding leads to increase of fluorescence emission. Assay readout: FAM (465-510 nm) Thermal Shift.
(§2) Assay sample buffer used: 10 mM CacoK pH 7.2, 30 mM NaCl. Buffer preparation in Dnase/Rnase Free distilled water (Gibco Life Technologies).
(§3) Tool compounds provided as dry powder are prepared as 50 mM stock solution in 100% d6-DMSO. Stock solutions of 50 mM concentration in d6-DMSO are stored at RT.
(§4) Sample plate: Roche, Light Cycler480 Multiwell Plate96, white, REF 04729692001. (Dilution plate: Greiner REF 781101, PS-Microplate, 384 well, clear). Thermal Shift device: Roche, Light Cycler480.
(§5) Daily fresh (10 ml): 1 ml 100 mM CacoK pH 7.2 and 0.3 ml 1 M NaCl filled up to 10 ml with Dnase/Rnase Free distilled water.
(§6) Dilute the RNA 1:10 (final 10 μM) in Assay Buffer.
(§7) Heat up the diluted RNA up to 90° C. for 5 min (sealed Eppendorf Tube).
(§8) Cool down the RNA probe slowly to RT.
(§9) Dilute the compounds to 800 μM in DMSO (Assay: 8 μM).
(§10) 78.4 μL Assay Buffer are pipetted into Greiner REF 781101, PS-Microplate, 384 (each well needed).
(§11) Add 0.8 μL of the RNA-Solution ([…]).
(§12) Add 0.8 μL Compound-Solution ([…]).
(§13) Final concentrations in the sample: 1 μM RNA, 8 μM compound, 1% DMSO
(§14) Pipet 20 μL Sample Solution into Roche, Light Cycler480 Multiwell Plate96, white, REF 04729692001.
(§15) When sample transfer is finished, seal the plate with a clear topseal (part of REF 04729692001).
(§16) Centrifuge the plate with a table-top device to spin down the samples.
(§17) Measure the 96 plate with the LightCycler480 (Channel: 480/510 nm; Temperature: 41-91° C.).
(§18) Analyse measurement-data with the MeltingCurveGenotyping Mode.
(§19) Settings: Acquisition mode: continuous; Ramp rate: 0.1 C.°/sec; Acquisition: 6/C.° Melt Curve Genotyping for All Samples
(§20) Melting curves analysis show melting temperature (Tm) of ˜51° C. Range of RNA concentrations was tested and assay window was determined (conc. range of 0.5-1 μM yields best results). The choice of buffer also affected the Tm. RNA constructs were tested under different buffer conditions (especially in presence of salt) in the thermal shift assay. […] CacoK with 30 mM salt at 1 μM RNA conc. was used to assess compound effects on 3WJ stability. […] These conditions were used for screening test compounds.

[1] = tested on: RNA3WJ_0.0.0_5IB_3FAM (3WJ_0.0.0_5IB_3FAM) RNA three way junction; assay: Thermal shift binding assay; settings: RNA3WJ_0.0.0_5IB_3FAM; 1 μM RNA, 8 μM compound, 1% DMSO; 10 mM CacoK pH 7.2, 30 mM NaCl
Source text: as §1, §2, §3, §4, §5, §6, §7, §8, §9, §10, §11, §12, §13, §14, §15, §16, §17, §18, §19, §20

[2] = tested on: RNA3WJ_1.0.0_5IB_3FAM (cis 3WJ with one unpaired nucleotide); assay: Fluorescence quenching binding assay; settings: cis 3WJ RNA3WJ_1.0.0_5IB_3FAM; two concentration points; FIG. 109
Procedure: This assay will be used to test binding of compounds for RNA three way junction (such as a 38 nt construct). This is a fluorescence quenching assay utilizing FAM as fluorescence tag and Iowa Black as quencher. Tags are attached at the 3′ and 5′ end, respectively. Stable formation of MW upon compound binding would lead to quenching of the FAM fluorescence due to close proximity of the Iowa Black tag. Assay readout: FAM (485-520 nm) Fluorescence Intensity.
as §2, §3
Sample plate: Greiner cat #784076, black, 384 (Dilution plate: Greiner REF 781101, PS-Microplate, 384 well, clear). Fluorescence Intensity device: Envision 1040285
Daily fresh (10 ml): 1 ml 100 mM CacoK pH 7.2 and 0.3 ml 1 M NaCl filled up to 10 ml with Dnase/Rnase Free distilled water […]
Calibration of the expected fluorescence signal at various RNA concentrations in either CacoK or NaPO4 buffers was performed first. Experiments in buffers containing salt show distinct fluorescence quenching behavior. […]
The fluorescence quenching experiment was repeated for compounds Ark0000013 and Ark0000014 to measure binding with: […]

[3] = tested on: Split3WJ.1_up_5IB+Split3WJ.1_down_3FAM (trans 3WJ as 1:1 mix; Split3WJ_1); assay: Thermal shift binding assay; settings: Split3WJ_1 (trans 3WJ), 1 μM RNA, 8 μM compound
Source text: as §1, §2, §3, §4, §5, §6, §7, §8, §9, §10, §11, §12, §13, §14, §15, §16, §17, §18, §19, §20
(§21) Compounds Ark0000013 and Ark0000014 were also tested in the thermal shift assay against three RNA 3WJ constructs, A) RNA3WJ_1.0.0_5IB_3FAM (cis 3WJ with one unpaired nucleotide); B) Split3WJ.1_up_5IB+Split3WJ.1_down_3FAM (trans 3WJ as 1:1 mix); and C) Split3WJ.2_up_5IB+Split3WJ.2_down_3FAM (trans 3WJ as 1:1 mix).

[4] = tested on: RNA3WJ_1.0.0_5IB_3FAM (cis 3WJ with one unpaired nucleotide); assay: Thermal shift binding assay; settings: RNA3WJ_1.0.0_5IB_3FAM; for Melting temp [° C.] + cmpd / Temp. Shift [° C.]: 1 μM RNA, 8 μM compound, 1% DMSO, 10 mM CacoK pH 7.2, 30 mM NaCl
Source text: as §1, §2, §3, §4, §5, §6, §7, §8, §9, §10, §11, §12, §13, §14, §15, §16, §17, §18, §19, §20, §21

[5] = tested on: Split3WJ.2_up_5IB+Split3WJ.2_down_3FAM (trans 3WJ as 1:1 mix; Split3WJ_2); assay: Thermal shift binding assay; settings: Split3WJ_2 (trans 3WJ), 1 μM RNA, 8 μM compound
Source text: as §1, §2, §3, §4, §5, §6, §7, §8, §9, §10, §11, §12, §13, §14, §15, §16, §17, §18, §19, §20, §21

Melting temp [° C.] + cmpd (RNA3WJ_1.1.0_5IB_3FAM) [°C] | Temp. Shift [° C.] (RNA3WJ_1.1.0_5IB_3FAM) [°C] | Melting temp [° C.] + cmpd [1] [°C] | Temp. Shift [° C.] [1] [°C] | Melting temp [° C.] + cmpd [3] [°C] | Temp. Shift [° C.] [3] [°C] | Temp. Shift [° C.] ([3]; listed as Ark000013) [°C] | Melting temp [° C.] + cmpd [4] [°C] | Temp. Shift [° C.] [4] [°C] | Effect in the melting curves (in words) ([4]; FIG. 111, listed as Ark000013) | Melting temp [° C.] + cmpd [5] [°C] | Temp. Shift [° C.] [5] [°C] | Temp. Shift [° C.] ([5]; listed as Ark000013) [°C] | Melting temp [° C.] + cmpd ([3]; listed as Ark000014) [°C] | Temp. Shift [° C.] ([3]; listed as Ark000014) [°C] | Melting temp [° C.] + cmpd ([4]; listed as Ark000014) [°C] | Temp. Shift [° C.] ([4]; listed as Ark000014) [°C] | Melting temp [° C.] + cmpd ([5]; listed as Ark000014) [°C] | Temp. Shift [° C.] ([5]; listed as Ark000014) [°C] | Structure (SMILES) | Effect in fluorescence quenching assay [2]
85.5 | 22.2 | 84.1 | 24.2 | 58.2 | 20.4 | ~21 | 87.0 | 21.4 | significant effect | 56.9 | 12.2 | ~13 | – | – | – | – | – | – | CN(CCCN)CCCNC(=O)c1ccc2c(c1)C1c3cc(C(=O)NCCCN(C)CCCN)ccc3C2c2ccc(C(=O)NCCCN(C)CCCN)cc21 [Ark0000013, N^2,N^7,N^15-tris(3-((3-aminopropyl)(methyl)amino)propyl)-9,10-dihydro-9,10-[1,2]benzenoanthracene-2,7,15-tricarboxamide] | significant concentration dependent effect
65.1 | 1.8 | 61.5 | 1.6 | 37.8 | 0.3 | – | 68.1 | 2.5 | – | 44.0 | −0.3 | – | 38.8 | ~1 | 68.4 | ~3 | 44.7 | ~1 | NCCCCCCCNC(=O)c1ccc2c(c1)C1c3cc(C(=O)NCCCCCCCN)ccc3C2c2ccc(C(=O)NCCCCCCCN)cc21 [Ark0000014, N^2,N^7,N^15-tris(7-aminoheptyl)-9,10-dihydro-9,10-[1,2]benzenoanthracene-2,7,15-tricarboxamide] | smaller effect
